From patent publication US20030175438A1, “Treatments of solid substrates to enhance durability of treatments placed thereon” (priority 2002, published 2003)

Key:
E. coli = experiment: CTM-0923 Dynamic Shake Flask Test (antimicrobial efficacy of treated fabric); format: cell-based; design: concentration or dose not given beside the values
Protocol: Sample Preparation: Fabric samples were obtained from the JoAnn fabric chain and were commercial fabrics. […] The treatment solutions were allowed to hydrolyze from the trimethoxysilyl form to the trisilanol form before adding the fabrics. This takes only a few minutes to essentially complete. The solution temperature was raised to 100° C. before treating the fabrics for 60 seconds by immersion in the solutions with moderate agitation of the solution within the flask. After removing the samples from the hot solution, they were nip rolled to remove excess liquid. […] The samples were air dried before testing unless otherwise noted. The Extraction, stated in percent, was measured using the Bromphenol Blue Extraction Method using spectrophotometric determination. This method is CTM 0824, which has been modified for use herein in the following manner. The chlorinated solvent has been eliminated and the wavelength is 595 nm. Further, Dow Corning® […] has been substituted for the Triton.RTM. X-100 wetting agent of the test. What is measured is the diminution of the BPB Absorbance at 595 nm relative to the BPB standard solution and it is reported in percent Extraction. Antimicrobial efficacy was determined using the CTM-0923 Dynamic Shake Flask Test unless otherwise stated. Samples were air dried before testing. The % extraction was measured using the BPB extraction Method using spectrophotometric determination at 595 nm. Antimicrobial efficacy was determined, when applicable, using the ASTM CTM 0923 Dynamic Shake Flask Test. The substrate may be either wet or dry. The testing results can be found on Tables XI and XII, respectively, infra.

[1] = Bromphenol Blue (BPB) Extraction Method, spectrophotometric at 595 nm (modified CTM 0824), on treated fabric; format: physicochemical; conditions: for Strike Rate - % BPB Extraction: No Boil, Table XIII
Protocol: Sample Preparation: Fabric samples were obtained from the JoAnn fabric chain and were commercial fabrics. The fabrics were cut into rectangular size and were about 1½ inches by 2 inches, and were treated in 0.15 weight percent active antimicrobial agent placed in an Erlenmeyer flask. The agent used in this example was N, N-dimethyl-N-Octadecyl-3-(trimethoxysilyl)propanaminium chloride. The treatment solutions were allowed to hydrolyze from the trimethoxysilyl form to the trisilanol form before adding the fabrics. This takes only a few minutes to essentially complete. The solution temperature was raised to 100° C. before treating the fabrics for 60 seconds by immersion in the solutions with moderate agitation of the solution within the flask. After removing the samples from the hot solution, they were nip rolled to remove excess liquid. Wet Weight Pickup (WWP) was targeted to 100%. The samples were air dried before testing unless otherwise noted. The Extraction, stated in percent, was measured using the Bromphenol Blue Extraction Method using spectrophotometric determination. This method is CTM 0824, which has been modified for use herein in the following manner. The chlorinated solvent has been eliminated and the wavelength is 595 nm. Further, Dow Corning® A521 has been substituted for the Triton.RTM. X-100 wetting agent of the test. What is measured is the diminution of the BPB Absorbance at 595 nm relative to the BPB standard solution and it is reported in percent Extraction. Antimicrobial efficacy was determined using the CTM-0923 Dynamic Shake Flask Test unless otherwise stated.
The antimicrobial agent used in this example was the same as that used in example 1. The samples were handled the same as in example 1 with the exception of the following. Samples were air and/or oven dried before testing. The % Extraction was measured using the BPB Extraction Method using spectrophotometric determination at 595 nm. If determined, antimicrobial efficacy was determined using the CTM-0923 Dynamic Shake Flask Test. Co-treatments the addition of the fabric to a 0.20 molar solution of the anion plus 0.15 WPA antimicrobial agent. The co-treatment is carried out at 100° C., and the fabric was moderately agitated for 60 seconds. The antimicrobial treatment is the addition of the fabric to a solution of 0.15 WPA antimicrobial agent held at 100° C. with moderate agitation for 60 seconds. Excess solution is removed from the samples, and the WWP is determined by weighing. Boiling was done with 200 milliliters of distilled water in a glass container in a microwave oven. Power setting was 30%, and the solution was gently boiled for 30 minutes. Sample size was nominally 1 gram and fresh water was used for each boiling study. The testing results can be found on Table XIII to XIV, respectively, infra. To differentiate between the application rate of the antimicrobial on the fabric, 25% of the normal sample size, or 0.25 grams of fabric was used to obtain the BPB Extraction values that ranged between 5 and 99%. This yielded values of percent BPB extraction that were in the linear range of the test procedure. Using larger samples creates an inaccurate test.

SMILES: CCCCCCCCCCCCCCCCCC[N+](C)(C)CCC[Si](OC)(OC)OC.[Cl-] [AMT, N, N-dimethyl-N-Octadecyl-3-(trimethoxysilyl)propanaminium chloride]
- Efficacy - % Reduction (E. coli; ACRYLIC/MODACRYLIC, boiled 30 minutes, Table V): 84%
- Efficacy - % Reduction (E. coli; ACRYLIC/MODACRYLIC, not boiled, Table V): 90%
- Efficacy - % Reduction (E. coli; COTTON, boiled 30 minutes, Table V): 99%
- DSF - % REDUCTION (E. coli; COTTON, boiled 30 minutes, Table VIII): 99%
- DSF - % REDUCTION (E. coli; COTTON, boiled, Table X): 93%
- Efficacy - % Reduction (E. coli; COTTON, not boiled, Table V): 99%
- DSF - % REDUCTION (E. coli; COTTON, not boiled, Table VIII): 99%
- DSF - % REDUCTION (E. coli; COTTON, not boiled, Table X): 89%
- Efficacy - % Reduction (E. coli; NYLON, boiled 30 minutes, Table II): 84%
- Efficacy - % Reduction (E. coli; NYLON, boiled 30 minutes, Table V): 19%
- DSF - % REDUCTION (E. coli; NYLON, boiled 30 minutes, Table VIII): 22%
- DSF - % REDUCTION (E. coli; NYLON, boiled, Table X): 99%
- Efficacy - % Reduction (E. coli; NYLON, not boiled, Table II): 90%
- Efficacy - % Reduction (E. coli; NYLON, not boiled, Table V): 99%
- DSF - % REDUCTION (E. coli; NYLON, not boiled, Table VIII): 99%
- DSF - % REDUCTION (E. coli; NYLON, not boiled, Table X): 99%
- Efficacy - % Reduction (E. coli; PET, boiled 30 minutes, Table II): 99%
- DSF - % REDUCTION (E. coli; PET, boiled 30 minutes, Table VIII): 91%
- DSF - % REDUCTION (E. coli; PET, boiled, Table X (untreated control 50)): 74%
- Efficacy - % Reduction (E. coli; PET, not boiled, Table II): 99%
- DSF - % REDUCTION (E. coli; PET, not boiled, Table VIII): 99%
- DSF - % REDUCTION (E. coli; PET, not boiled, Table X (untreated control 50)): 79%
- Efficacy - % Reduction (E. coli; RAYON, boiled 30 minutes, Table II): 19%
- DSF - % REDUCTION (E. coli; RAYON, boiled 30 minutes, Table VIII): 94%
- DSF - % REDUCTION (E. coli; RAYON, boiled, Table X): 99%
- Efficacy - % Reduction (E. coli; RAYON, not boiled, Table II): 99%
- DSF - % REDUCTION (E. coli; RAYON, not boiled, Table VIII): 99%
- DSF - % REDUCTION (E. coli; RAYON, not boiled, Table X): 99%
- BOILED IN WATER % EXTRACTION ([1]; 130° C./30 minutes, Table XII): 27%
- % BPB EXTRACTION CHANGE ([1]; COTTON, boiled vs not boiled, Table IV): −1%
- EXTRACTION CHANGE ([1]; COTTON, boiled vs not boiled, Table VI): 0%
- % Extraction @ 595 nm ([1]; NYLON, boiled 30 minutes, Table VI): 11%
- % BPB EXTRACTION @ 595 nm ([1]; NYLON, boiled, Table IX): 19%
- % BPB EXTRACTION @ 595 nm ([1]; NYLON, not boiled, Table IX): 85%
- Boiling Durability % BPB EXTRACTION @ 595 nm ([1]; NYLON, not boiled, Table XVII): 80%
- Strike Rate - % BPB Extraction ([1]; Nylon, 0.25 grams of fabric): 8.01%
- Strike Rate - % BPB Extraction ([1]; Nylon, treatment at pH = 11): 45.1%
- Strike Rate - % BPB Extraction ([1]; PET Staple, treatment at pH = 11): 75.82%
- Boiling Durability - % BPB Extraction ([1]; PET, Boil 30 min., Table XIV): 17.9%
- Strike Rate - % BPB Extraction ([1]; PET, treatment at pH = 11): 62.57%
- % BPB EXTRACTION @ 595 nm ([1]; PET, boiled 30 minutes, Table XV): 36%
- % EXTRACTION CHANGE ([1]; PET, boiled vs not boiled, Table XVII): −64%
- % BPB EXTRACTION @ 595 nm ([1]; PET, not boiled, Table III): 94%
- Strike Rate - % BPB Extraction ([1]; Rayon, 0.25 grams of fabric): 6.94%
